Converted amounts (≈) assume the structure as drawn. Like-named read-outs stand apart in the source and are kept apart here. Where no end group is shown, it is not given here.

For one data set, the system named is K. pneumoniae. Nature of the data set: microbe, parasite or virus in culture. The following applies: 18 h. The class given is cell-based, Klebsiella pneumoniae. As to the method:
(§1) Bacterial clinical isolates, used for initial screening and in previous studies ([Deslouches et al., 2013]; [Lin et al., 2018]), were anonymously provided by the clinical microbiology laboratory of the University of Pittsburgh medical Center. The panel used for secondary screening was from [CDC (2013)] (Supplementary Table 3), with resistance profiles data. Bacteria are stored in lock-secured –80°C freezer and typically retrieved by obtaining single colonies on agar plates prior for subsequent liquid broth cultures. Suspensions of test bacteria were prepared from log phase of growth by diluting overnight cultures at 1:100 with fresh cation-adjusted MHB (MHB2, Millipore Sigma, United States) and incubating for additional 3–4 h. Bacteria were spun at 3,000 × g for 10 min and the pellet resuspended in test condition media (Millipore Sigma, United States) to determine bacterial turbidity using a Den-1B densitometer (Grant Instruments, United States) at 0.5 McFarland (unit of bacterial density) corresponding to […].
(§2) To examine antibacterial activity, we used minor modifications of a standard growth inhibition assay endorsed by the Clinical and Laboratory Standards Institute (CLSI), as previously described ([Deslouches et al., 2013]). Bacteria were incubated with each of the indicated peptides in MHB2. The bacterial cells were kept in an incubator for 18 h at 37°C, which is linked to a robotic system that feeds a plate reader every hour with one of 8 × 96-well plates. This set-up allows the collection of growth kinetic data at A 570 (absorbance at 570 nm) to examine growth inhibition in real time (BioTek Instruments, United States). […] The assays are typically repeated a second time. If the MIC is different, a third experimental trial is performed to confirm the MIC. To assess bactericidal properties of the peptide, the assay was modified by using 15% fetal bovine serum (FBS, for a more physiologically relevant test condition) mixed with 25% MHB2 and 60% PBS. Bacterial cells (colony forming unit/mL or CFU/mL) were enumerated after incubating treated bacteria for 3 h and plating serially diluted samples on broth agar medium at 37°C overnight. Minimum bactericidal concentration (MBC) was determined as the peptide concentration at which complete bacterial killing was observed. […] Data were analyzed using GraphPad Prism software.

In another data set the test system is S. aureus. Description: microbe, parasite or virus in culture. It counts as cell-based. The note with it: Staphylococcus aureus, 18 h, MHB2, 18 h, 37°C. The protocol:
as §1, §2

For a further data set, the system named is E. Faecium. Nature of the data set: microbe, parasite or virus in culture. The class given is cell-based, Enterococcus Facium. The following applies: Enterococcus faecium, 18 h, MHB2, 18 h, 37°C. The protocol: as §1, §2
Data set [1] has as its system CDC AR isolates. On the set-up: key: S (green), susceptible; I (blue), intermediate; R (red), resistant. The note with it: data provided by the CDC, ref CDC, cited from earlier work. From the text: Supplement Table_3.XLSX, sheet "CDC AR isolates profiles" | column: G(-) strains
For another data set, the system named is A. baumannii. Nature of the data set: microbe, parasite or virus in culture. The note with it: Acinetobacter baumannii, 18 h, MHB2, 18 h, 37°C. The class given is cell-based, Acinetobacter baumannii. As to the method:
as §1, §2

For the next data set, the system named is E. coli. Nature of the data set: microbe, parasite or virus in culture. It counts as cell-based, Escherichia coli. The note with it: Escherichia coli, 18 h, MHB2, 18 h, 37°C. The protocol:
as §1, §2

Another data set relates to Enterobacter spp. Nature of the data set: microbe, parasite or virus in culture. It counts as cell-based, Enterobacter spp (aerogenes, cloacae). The note with it: Enterobacter, 18 h, UPMC, MHB2, 18 h, 37°C. As to the method:
as §1, §2

The subject of a further data set is P. aeruginosa. Nature of the data set: microbe, parasite or virus in culture. It counts as cell-based, Pseudomonas aeruginosa. The note with it: Pseudomonas aeruginosa, 18 h, MHB2, 18 h, 37°C. As to the method: as §1, §2
Data set [2] has as its system CDC AR isolates. Also noted: key: S (green), susceptible; I (blue), intermediate; R (red), resistant. The note with it: Staphylococcus aureus SA461, CDC AR isolate; data provided by the CDC; ref CDC; cited from earlier work.
[3] abbreviates: Enterobacter cloacae E62, CDC AR isolate.
Setting [4] is: Enterobacter cloacae E544, CDC AR isolate.
The mark [5] stands for this setting: Enterobacter cloacae E545, CDC AR isolate.
Setting [6] is: Enterobacter cloacae E546, CDC AR isolate.
Setting [7] is: Escherichia coli EC541, CDC AR isolate.
The mark [8] stands for this setting: Escherichia coli EC543, CDC AR isolate.
The mark [9] stands for this setting: Escherichia coli EC544, CDC AR isolate.
The mark [10] stands for this setting: Escherichia coli EC549, CDC AR isolate.
[11] abbreviates: Klebsiella pneumoniae KP542, CDC AR isolate.
The mark [12] stands for this setting: Klebsiella pneumoniae KP548, CDC AR isolate.
[13] abbreviates: Klebsiella pneumoniae KP550, CDC AR isolate.
Where [14] appears, read: Klebsiella pneumoniae KP552, CDC AR isolate.

The compound H-RWVRRVRRVWRRVRRVVRRW-OH [E7] came in with a % RBC lysis of 5%.
Compound RRVVRRWRRVVRRWVRVWRRVVRR [E3] registered a % RBC lysis of 17%. Besides, the MIC against K. pneumoniae is on record as 8 µM.
In the case of `Cc1nnc(SCC2=C(C(=O)O)N3C(=O)[C@@H](NC(=O)Cn4cnnn4)[C@H]3SC2)s1` [Cefazolin, reference compound], the MIC is 16 µM (≈ 7.27 µg/mL) against S. aureus (strain SA12212, UPMC); 16 µM (≈ 7.27 µg/mL) with S. aureus (strain SA18710, UPMC); 2 µM (≈ 0.909 µg/mL) with S. aureus (strain SA49775); 8 µM (≈ 3.64 µg/mL) against S. aureus (strain SA-US300); more than 16 µM against E. Faecium (strain EF23614, UPMC); more than 16 µM against E. Faecium (strain EF24670, UPMC). In addition, the MIC came to 4 µM (≈ 1.82 µg/mL) with E. Faecium (strain EF26215, UPMC) and 4 µM (≈ 1.82 µg/mL) in the data set with E. Faecium (strain EF26692, UPMC). Moreover, the Antibiotic susceptibility profile entry in the data set on CDC AR isolates [1] (setting [3]), in the data set on CDC AR isolates [1] (setting [4]), with CDC AR isolates [1] (setting [5]), with CDC AR isolates [1] (setting [6]), in the data set on CDC AR isolates [1] (setting [7]) and in the data set on CDC AR isolates [1] (setting [8]) was “R” in each case. Besides, the Antibiotic susceptibility profile result in the data set with CDC AR isolates [1] (setting [9]), in the data set on CDC AR isolates [1] (setting [10]), with CDC AR isolates [1] (setting [11]), in the data set with CDC AR isolates [1] (setting [12]), in the data set with CDC AR isolates [1] (setting [13]) and with CDC AR isolates [1] (setting [14]) was “R” each time.
For `CC(C)(O/N=C(\C(=O)N[C@@H]1C(=O)N2C(C(=O)[O-])=C(C[n+]3ccccc3)CS[C@H]12)c1csc(N)n1)C(=O)O` [Ceftazidime, reference compound], the MIC against A. baumannii (strain AB-A2, UPMC clinical strain, A570, confirmed by 2nd or 3rd trial) is 1 µM (≈ 0.547 µg/mL); with A. baumannii (strain AB-A3, UPMC), more than 16 µM; against A. baumannii (strain AB-F8, UPMC), more than 16 µM; against A. baumannii (strain AB-F9, UPMC), 2 µM (≈ 1.09 µg/mL); in the data set on K. pneumoniae (Klebsiella pneumoniae, strain KP43816, MHB2, 18 h, 37°C) it was 1 µM (≈ 0.547 µg/mL); against K. pneumoniae (Klebsiella pneumoniae, strain KPA5 (colistin-resistant), UPMC, MHB2, 18 h, 37°C), 12 µM (≈ 6.56 µg/mL). Moreover, the MIC is 8 µM (≈ 4.37 µg/mL) with K. pneumoniae (Klebsiella pneumoniae, strain KPB3, UPMC, MHB2, 18 h, 37°C); more than 16 µM against K. pneumoniae (Klebsiella pneumoniae, strain KPC3, UPMC, MHB2, 18 h, 37°C); 1 µM (≈ 0.547 µg/mL) in the data set on E. coli (strain Eco25922); 4 µM (≈ 2.19 µg/mL) with E. coli (strain YDC107, UPMC); more than 16 µM against E. coli (strain YDC337, UPMC); more than 16 µM against E. coli (strain YDC748, UPMC). For the same compound, the MIC against E. Faecium (strain EF23614, UPMC) is 8 µM (≈ 4.37 µg/mL); against E. Faecium (strain EF24670, UPMC), more than 16 µM; against Enterobacter spp (strain EA518 (aerogenes)), more than 16 µM; in the data set with Enterobacter spp (strain EA596 (aerogenes)), more than 16 µM; against Enterobacter spp (strain EC470 (cloacae)), more than 16 µM; against Enterobacter spp (strain EC560 (cloacae)), more than 16 µM. Moreover, the MIC in the data set on P. aeruginosa (strain PA97-5, UPMC) was 1 µM (≈ 0.547 µg/mL); against P. aeruginosa (strain PA129-5, UPMC), 2 µM (≈ 1.09 µg/mL). In addition, the Antibiotic susceptibility profile result in the data set on CDC AR isolates [1] (Acinetobacter baumannii AB273, CDC AR isolate) is recorded as “R”; with CDC AR isolates [1] (Acinetobacter baumannii AB274, CDC AR isolate), “R”; in the data set on CDC AR isolates [1] (Acinetobacter baumannii AB275, CDC AR isolate), “R”; with CDC AR isolates [1] (Acinetobacter baumannii AB276, CDC AR isolate), “R”; in the data set with CDC AR isolates [1] (setting [3]), “S”; in the data set with CDC AR isolates [1] (setting [4]), “S”. The Antibiotic susceptibility profile result in the data set on CDC AR isolates [1] (setting [5]), with CDC AR isolates [1] (setting [6]), with CDC AR isolates [1] (setting [7]), in the data set on CDC AR isolates [1] (setting [8]), with CDC AR isolates [1] (setting [9]) and in the data set with CDC AR isolates [1] (setting [10]) was “S” each time. In addition, the Antibiotic susceptibility profile result in the data set with CDC AR isolates [1] (setting [11]) is recorded as “R”; in the data set on CDC AR isolates [1] (setting [12]) it was “R”; with CDC AR isolates [1] (setting [13]), “R”; with CDC AR isolates [1] (setting [14]), “S”; with CDC AR isolates [1] (Pseudomonas aeruginosa PA229, CDC AR isolate) it was “R”; in the data set with CDC AR isolates [1] (Pseudomonas aeruginosa PA230, CDC AR isolate), “R”. Also, the Antibiotic susceptibility profile entry in the data set with CDC AR isolates [1] (Pseudomonas aeruginosa PA231, CDC AR isolate) is “R”; in the data set on CDC AR isolates [1] (Pseudomonas aeruginosa PA232, CDC AR isolate) it was “S”; in the data set with CDC AR isolates [1] (Pseudomonas aeruginosa PA239, CDC AR isolate), “R”.
As for `Cc1onc(-c2ccccc2)c1C(=O)N[C@@H]1C(=O)N2[C@@H]1SC(C)(C)[C@@H]2C(=O)O` [Oxacillin, reference compound], the MIC is 8 µM (≈ 3.21 µg/mL) against S. aureus (strain SA12212, UPMC); 4 µM (≈ 1.61 µg/mL) against S. aureus (strain SA18710, UPMC); 0.25 µM (≈ 0.1 µg/mL) in the data set with S. aureus (strain SA49775); 4 µM (≈ 1.61 µg/mL) with S. aureus (strain SA-US300); 0.25 µM (≈ 0.1 µg/mL) against E. Faecium (strain EF23614, UPMC); more than 16 µM in the data set with E. Faecium (strain EF24670, UPMC). Moreover, the MIC was 2 µM (≈ 0.803 µg/mL) against E. Faecium (strain EF26215, UPMC) and 2 µM (≈ 0.803 µg/mL) in the data set on E. Faecium (strain EF26692, UPMC). Moreover, the Antibiotic susceptibility profile entry with CDC AR isolates [2] is “S”; with CDC AR isolates [1] (Staphylococcus aureus SA462, CDC AR isolate), “S”; in the data set with CDC AR isolates [1] (Staphylococcus aureus SA463, CDC AR isolate), “S”; in the data set with CDC AR isolates [1] (Staphylococcus aureus SA561, CDC AR isolate), “R”.

The values above are taken from PMC9186412, “Rational Framework for the Design of Trp- and Arg-Rich Peptide Antibiotics Against Multidrug-Resistant Bacteria” (Frontiers in Microbiology, 2022).
